In ChEMBL document CHEMBL1201862, “PubChem BioAssay data set” (2004):
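Test compounds were applied to cells in 96-well plates for 48 hours at 5 doses. At the GI50, growth is halved.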 Activity calls are given as the source filed them. Rule as the data show it: active = GI50 up to about 1.1 µM and inactive = higher.

Columns and labels:
Experiment in all cases: NCI-60 cell line screen, 48 h
ACHN = tested on: ACHN
SF-268 = tested on: SF-268
T47D = tested on: T47D
BT-549 = tested on: BT-549
SK-MEL-2 = tested on: SK-MEL-2
HOP-62 = tested on: HOP-62
HCT-116 = tested on: HCT-116
SNB-19 = tested on: SNB-19
Malme-3M = tested on: Malme-3M
MDA-N = tested on: MDA-N
SK-OV-3 = tested on: SK-OV-3
OVCAR-8 = tested on: OVCAR-8
KM12 = tested on: KM12
UO-31 = tested on: UO-31
HT-29 = tested on: HT-29
K562 = tested on: K562
IGROV-1 = tested on: IGROV-1
MDA-MB-231 = tested on: MDA-MB-231
SF-539 = tested on: SF-539
SNB-75 = tested on: SNB-75
OVCAR-5 = tested on: OVCAR-5
HOP-92 = tested on: HOP-92
SN12C = tested on: SN12C
HCC 2998 = tested on: HCC 2998
NCI/ADR-RES = tested on: NCI/ADR-RES
OVCAR-4 = tested on: OVCAR-4
A549 = tested on: A549
SK-MEL-5 = tested on: SK-MEL-5
HL-60 = tested on: HL-60
CCRF-CEM = tested on: CCRF-CEM
OVCAR-3 = tested on: OVCAR-3
RPMI-8226 = tested on: RPMI-8226
NCI-H522 = tested on: NCI-H522
Hs-578T = tested on: Hs-578T
NCI-H23 = tested on: NCI-H23
SW-620 = tested on: SW-620
LOX IMVI = tested on: LOX IMVI
U-251 = tested on: U-251
CAKI-1 = tested on: CAKI-1
M14 = tested on: M14
TK-10 = tested on: TK-10
RXF 393 = tested on: RXF 393
PC-3 = tested on: PC-3
MCF7 = tested on: MCF7
786-0 = tested on: 786-0
SK-MEL-28 = tested on: SK-MEL-28
UACC-62 = tested on: UACC-62
UACC-257 = tested on: UACC-257
SR = tested on: SR
SF-295 = tested on: SF-295
NCI-H460 = tested on: NCI-H460
HCT-15 = tested on: HCT-15
A498 = tested on: A498
MDA-MB-435 = tested on: MDA-MB-435
EKVX = tested on: EKVX
NCI-H226 = tested on: NCI-H226
MOLT-4 = tested on: MOLT-4
COLO 205 = tested on: COLO 205
DU-145 = tested on: DU-145

SMILES: COC(=O)C(=O)C(C(=O)OC)C(=O)C(=O)Nc1c(Cl)cc([N+](=O)[O-])cc1Cl (stereo unspecified)
- GI50 (ACHN): 80.2 µM (inactive)
- GI50 (SF-268): 40.1 µM (inactive)
- GI50 (T47D): > 100 µM (inactive)
- GI50 (BT-549): > 100 µM (inactive)
- GI50 (SK-MEL-2): > 100 µM (inactive)
- GI50 (HOP-62): 37.1 µM (inactive)
- GI50 (HCT-116): > 100 µM (inactive)
- GI50 (SNB-19): > 100 µM (inactive)
- GI50 (Malme-3M): > 100 µM (inactive)
- GI50 (MDA-N): > 100 µM (inactive)
- GI50 (SK-OV-3): > 100 µM (inactive)
- GI50 (OVCAR-8): 46 µM (inactive)
- GI50 (KM12): > 100 µM (inactive)
- GI50 (UO-31): > 100 µM (inactive)
- GI50 (HT-29): > 100 µM (inactive)
- GI50 (K562): > 100 µM (inactive)
- GI50 (IGROV-1): 44.9 µM (inactive)
- GI50 (MDA-MB-231): > 100 µM (inactive)
- GI50 (SF-539): > 100 µM (inactive)
- GI50 (SNB-75): 64.1 µM (inactive)
- GI50 (OVCAR-5): > 100 µM (inactive)
- GI50 (HOP-92): > 100 µM (inactive)
- GI50 (SN12C): > 100 µM (inactive)
- GI50 (HCC 2998): > 100 µM (inactive)
- GI50 (NCI/ADR-RES): 72.8 µM (inactive)
- GI50 (OVCAR-4): 80.9 µM (inactive)
- GI50 (A549): > 100 µM (inactive)
- GI50 (SK-MEL-5): > 100 µM (inactive)
- GI50 (HL-60): > 100 µM (inactive)
- GI50 (CCRF-CEM): > 10 µM (inactive)
- GI50 (OVCAR-3): > 100 µM (inactive)
- GI50 (RPMI-8226): > 100 µM (inactive)
- GI50 (NCI-H522): 27 µM (inactive)
- GI50 (Hs-578T): 66.2 µM (inactive)
- GI50 (NCI-H23): > 100 µM (inactive)
- GI50 (SW-620): > 100 µM (inactive)
- GI50 (LOX IMVI): 83 µM (inactive)
- GI50 (U-251): 68.7 µM (inactive)
- GI50 (CAKI-1): > 100 µM (inactive)
- GI50 (M14): > 100 µM (inactive)
- GI50 (TK-10): 62.4 µM (inactive)
- GI50 (RXF 393): 81.3 µM (inactive)
- GI50 (PC-3): > 100 µM (inactive)
- GI50 (MCF7): > 100 µM (inactive)
- GI50 (786-0): 40.7 µM (inactive)
- GI50 (SK-MEL-28): > 100 µM (inactive)
- GI50 (UACC-62): > 100 µM (inactive)
- GI50 (UACC-257): > 100 µM (inactive)
- GI50 (SR): > 10 µM (inactive)
- GI50 (SF-295): 64 µM (inactive)
- GI50 (NCI-H460): > 100 µM (inactive)
- GI50 (HCT-15): 92.9 µM
- GI50 (A498): > 100 µM (inactive)
- GI50 (MDA-MB-435): > 100 µM (inactive)
- GI50 (EKVX): 48.6 µM (inactive)
- GI50 (NCI-H226): > 100 µM (inactive)

SMILES: CCN(CC)CCCC(C)Nc1ccnc2cc3ccccc3cc12 (stereo unspecified)
- GI50 (ACHN): 3.72 µM (inactive)
- GI50 (SF-268): 4.86 µM (inactive)
- GI50 (T47D): 12.8 µM (inactive)
- GI50 (MOLT-4): 4.09 µM (inactive)
- GI50 (BT-549): 8.59 µM (inactive)
- GI50 (SK-MEL-2): 23.9 µM (inactive)
- GI50 (HOP-62): 12.4 µM (inactive)
- GI50 (HCT-116): 5.75 µM (inactive)
- GI50 (SNB-19): 7.53 µM (inactive)
- GI50 (Malme-3M): 19.7 µM (inactive)
- GI50 (SK-OV-3): 8.05 µM (inactive)
- GI50 (OVCAR-8): 7.23 µM (inactive)
- GI50 (KM12): 4.95 µM (inactive)
- GI50 (UO-31): 6.32 µM (inactive)
- GI50 (K562): 7 µM (inactive)
- GI50 (IGROV-1): 4.43 µM (inactive)
- GI50 (MDA-MB-231): 8.57 µM (inactive)
- GI50 (SF-539): 22.8 µM (inactive)
- GI50 (SNB-75): 6.95 µM (inactive)
- GI50 (OVCAR-5): 21.7 µM (inactive)
- GI50 (HOP-92): 12.3 µM (inactive)
- GI50 (SN12C): 14.2 µM (inactive)
- GI50 (NCI/ADR-RES): 10.1 µM (inactive)
- GI50 (OVCAR-4): 3.24 µM (inactive)
- GI50 (A549): 7.03 µM (inactive)
- GI50 (SK-MEL-5): 19.8 µM (inactive)
- GI50 (HL-60): 10.7 µM (inactive)
- GI50 (CCRF-CEM): > 100 µM (inactive)
- GI50 (OVCAR-3): 6.05 µM (inactive)
- GI50 (RPMI-8226): 13.5 µM (inactive)
- GI50 (NCI-H522): 10.4 µM (inactive)
- GI50 (Hs-578T): 36.5 µM (inactive)
- GI50 (NCI-H23): 14.3 µM (inactive)
- GI50 (SW-620): 6.19 µM (inactive)
- GI50 (LOX IMVI): 4.91 µM (inactive)
- GI50 (U-251): 5.75 µM (inactive)
- GI50 (CAKI-1): 9.2 µM (inactive)
- GI50 (M14): 14.6 µM (inactive)
- GI50 (TK-10): 10.2 µM (inactive)
- GI50 (RXF 393): 9.53 µM (inactive)
- GI50 (PC-3): 12.9 µM (inactive)
- GI50 (MCF7): 5.35 µM (inactive)
- GI50 (786-0): 8.41 µM (inactive)
- GI50 (UACC-62): 17.2 µM (inactive)
- GI50 (UACC-257): 23.8 µM (inactive)
- GI50 (SR): 3.75 µM (inactive)
- GI50 (SF-295): 5.82 µM (inactive)
- GI50 (NCI-H460): 3.57 µM (inactive)
- GI50 (HCT-15): 3.23 µM
- GI50 (A498): 22.6 µM (inactive)
- GI50 (MDA-MB-435): 7.85 µM (inactive)
- GI50 (EKVX): 32.2 µM (inactive)
- GI50 (COLO 205): 3.3 µM (inactive)
- GI50 (NCI-H226): 20.9 µM (inactive)
- GI50 (DU-145): > 100 µM (inactive)
